Key:
Assay in all cases: Bliss excess, mean over the matrix (fraction); higher = more synergy
[1] = system: UM-UC-3 (Bladder Carcinoma)
Summary of the method: (§1)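 Cell lines in DMEM/F12 or RPMI with 10% FBS were plated in 1536-well plates, held 24 hours at 37°C, 5% CO2, then given two-drug dose matrices for 72 hours (DMSO typically 0.2%). Viability was read by CellTiter-Glo 2.0 luminescence and scaled as inhibition from 0 (vehicle wells) to 1 (blank wells). Combination Emax is the second-highest inhibition in the matrix; Bliss excess is observed combination effect minus expected EA + EB − EA·EB, EA and EB being single-agent effects.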

[2] = system: DEL (T-Cell Non-Hodgkin's Lymphoma)
Summary of the method: as §1

[3] = system: ME-1 (Acute Myeloid Leukemia)
Summary of the method: as §1

[4] = system: Hs-578-T (Breast Carcinoma)
Summary of the method: as §1

[5] = system: CAL-148 (Breast Carcinoma)
Summary of the method: as §1

[6] = system: TCCSUP (Bladder Carcinoma)
Summary of the method: as §1

[7] = system: DoTc2-4510 (Cervical Carcinoma)
Summary of the method: as §1

[8] = system: KURAMOCHI (Ovarian Carcinoma)
Summary of the method: as §1

[9] = system: NCI-H82 (Small Cell Lung Carcinoma)
Summary of the method: as §1

[10] = system: HO-1-N-1 (Oral Cavity Carcinoma)
Summary of the method: as §1

[11] = system: RO82-W-1 (Thyroid Gland Carcinoma)
Summary of the method: as §1

[12] = system: LS-180 (Colorectal Carcinoma)
Summary of the method: as §1

[13] = system: Calu-3 (Lung Adenocarcinoma)
Summary of the method: as §1

[14] = system: KYSE-520 (Esophageal Squamous Cell Carcinoma)
Summary of the method: as §1

[15] = system: HCC1806 (Breast Carcinoma)
Summary of the method: as §1

[16] = system: B-CPAP (Thyroid Gland Carcinoma)
Summary of the method: as §1

[17] = system: LNCaP-Clone-FGC (Prostate Carcinoma)
Summary of the method: as §1

[18] = system: 42-MG-BA (Glioblastoma)
Summary of the method: as §1

[19] = system: ES4 (Ewing's Sarcoma)
Summary of the method: as §1

[20] = system: Ramos-2G6-4C10 (Burkitt's Lymphoma)
Summary of the method: as §1

Structure (SMILES)	Bliss excess [1]	Bliss excess [2]	Bliss excess [3]	Bliss excess [4]	Bliss excess [5]	Bliss excess [6]	Bliss excess [7]	Bliss excess [8]	Bliss excess [9]	Bliss excess [10]	Bliss excess [11]	Bliss excess [12]	Bliss excess [13]	Bliss excess [14]	Bliss excess [15]	Bliss excess [16]	Bliss excess [17]	Bliss excess [18]	Bliss excess [19]	Bliss excess [20]
CN(C)CCCOc1ccc(-c2ccc3ncc4c(c3c2)n(C2CCOCC2)c(=O)n4C)cn1 [AZD0156] + C=CCn1c(=O)c2cnc(Nc3ccc(N4CCN(C)CC4)cc3)nc2n1-c1cccc(C(C)(C)O)n1 [AZD1775] (first compound max 1 µM, partner max 1 µM)	-0.007	-0.0036	-0.0276	-0.0457	-0.0318	-0.0651	-0.0204	-0.031	-0.0283	-0.012	-0.119	-0.0459	-0.0378	-0.0232	-0.0219	-0.0255	-0.045	0.0275	0.0122	0.0365
CN(C)CCCOc1ccc(-c2ccc3ncc4c(c3c2)n(C2CCOCC2)c(=O)n4C)cn1 [AZD0156] + CCN(CCO)CCCOc1ccc2c(Nc3cc(CC(=O)Nc4cccc(F)c4)[nH]n3)ncnc2c1 [AZD2811] (first compound max 1 µM, 7x7, partner max 1 µM)	-0.0079	0.117	-0.0275	-0.0708	-0.0262	-0.0589	-0.0111	-0.0357	0.0315	0.0056	-0.0556	-0.0264	-0.0295	0.005	-0.003	-0.0224	-0.0257	0.0813	0.03	0.0919
CN(C)CCCOc1ccc(-c2ccc3ncc4c(c3c2)n(C2CCOCC2)c(=O)n4C)cn1 [AZD0156] + C[C@@H]1COCCN1C2=NC(=NC(=C2)C3(CC3)[S@](=N)(=O)C)C4=C5C=CNC5=NC=C4 [AZD6738] (first compound max 1 µM, 7x7, partner max 10 µM)	0.0101	0.0293	-0.107	-0.0157	-0.0441	-0.0255	0.0037	-0.0119	0.0286	-0.0101	-0.0649	-0.0347	-0.0205	-0.0172	0.0241	0.027	-0.056	0.0224	0.0618	0.0933
CN(C)CCCOc1ccc(-c2ccc3ncc4c(c3c2)n(C2CCOCC2)c(=O)n4C)cn1 [AZD0156] + O=C(c1cc(Cc2n[nH]c(=O)c3ccccc23)ccc1F)N1CCN(C(=O)C2CC2)CC1 [Olaparib] (first compound max 3 µM, partner max 3 µM)	0.0739	0.312	-0.0065	0.0937	0.0072	0.0405	-0.043	-0.0737	0.0369	0.0618	-0.0299	-0.002	-0.0153	-0.0172	0.191	0.0785	0.0755	0.0602	0.116	0.0928
C=CCn1c(=O)c2cnc(Nc3ccc(N4CCN(C)CC4)cc3)nc2n1-c1cccc(C(C)(C)O)n1 [AZD1775] + C1CN(CCC1(C(=O)N[C@@H](CCO)C2=CC=C(C=C2)Cl)N)C3=NC=NC4=C3C=CN4 [Capivasertib] (first compound max 3 µM, partner max 3 µM)	0.0405	0.0666	-0.0726	-0.102	-0.0405	0.0046	0.0408	-0.072	0.003	0.0595	-0.0678	-0.0513	-0.0761	-0.0129	0.0151	0.0065	-0.0492	-0.0419	0.0691	0.0099
C=CCn1c(=O)c2cnc(Nc3ccc(N4CCN(C)CC4)cc3)nc2n1-c1cccc(C(C)(C)O)n1 [AZD1775] + C[C@@H]1COCCN1C2=NC(=NC(=C2)C3(CC3)[S@](=N)(=O)C)C4=C5C=CNC5=NC=C4 [AZD6738] (first compound max 1 µM, partner max 10 µM)	0.0606	0.0252	-0.0241	-0.0127	-0.034	0.0305	0.0479	-0.0355		0.0456	-0.0916	-0.0098	-0.0181	-0.003	0.0166	0.0499	-0.0387	0.0384	0.0417	0.0915
C=CCn1c(=O)c2cnc(Nc3ccc(N4CCN(C)CC4)cc3)nc2n1-c1cccc(C(C)(C)O)n1 [AZD1775] + O=C(c1cc(Cc2n[nH]c(=O)c3ccccc23)ccc1F)N1CCN(C(=O)C2CC2)CC1 [Olaparib] (first compound max 1 µM, partner max 10 µM)	0.0251	0.0023	-0.0873	-0.0965	0.0068	0.0107	-0.0634	-0.0358	-0.0098	0.0217	-0.0724	-0.0188	-0.0243	-0.0301	-0.0294	0.0393	-0.0242	0.0093	0.0199	-0.0238
CCN(CCO)CCCOc1ccc2c(Nc3cc(CC(=O)Nc4cccc(F)c4)[nH]n3)ncnc2c1 [AZD2811] + C=CCn1c(=O)c2cnc(Nc3ccc(N4CCN(C)CC4)cc3)nc2n1-c1cccc(C(C)(C)O)n1 [AZD1775] (first compound max 1 µM, partner max 1 µM)	-0.0171	0.0636	-0.0812	-0.0212	-0.0165	-0.0204	-0.0323	-0.0602	0.0241	-0.0785	-0.063	0.0269	-0.0306	-0.0048	0.0012	-0.0363	0.0001	0.081	-0.0024	0.0096
COc1nnc2ccc(N3CCC(c4ccc(OCCN5CCN(C)C(=O)[C@H]5C)cc4)CC3)nn12 [AZD5153] + CN(CC[C@H](CSC1=CC=CC=C1)NC2=C(C=C(C=C2)S(=O)(=O)NC(=O)C3=CC=C(C=C3)N4CCC(CC4)[C@H](C5=CC=CC=C5C6=CC=C(C=C6)Cl)O)S(=O)(=O)C(F)(F)F)CCO [AZD4320] (first compound max 1 µM, 7x7, partner max 1 µM)		0.0204				0.0033								0.023	0.0257	0.0375	0.0557	0.101	-0.0136	
Cc1c2c(nn1C)CSCc1cc(n(C)n1)CSc1cc(c3ccccc3c1)OCCCc1c(C(=O)O)n(C)c3c-2c(Cl)ccc13 [AZD5991] + Cc1cc2ncnn2cc1Nc1ncc2c(n1)n(C1CCOCC1)c(=O)n2C [AZD7648] (first compound max 1 µM, 7x7, partner max 10 µM)	0.0053	0.0005	0.013	-0.0058	-0.0121	-0.0203		-0.0228	0.0174	-0.0039	-0.0503	-0.0213	-0.0115	-0.0595	-0.0203	-0.0155	-0.0423	-0.0299	-0.0593	0.0227
CS(=O)(=O)CCNCc1ccc(-c2ccc3ncnc(Nc4ccc(OCc5cccc(F)c5)c(Cl)c4)c3c2)o1 [Lapatinib] + Cn1cnc2c(F)c(Nc3ccc(Br)cc3Cl)c(C(=O)NOCCO)cc21 [Selumetinib] (first compound max 10 µM, 7x7, partner max 10 µM)	0.0547		0.0694	-0.0311	0.0085		-0.0459	-0.0116	-0.0082	0.145	-0.0093	0.0947	-0.009							0.0139
CS(=O)(=O)CCNCc1ccc(-c2ccc3ncnc(Nc4ccc(OCc5cccc(F)c5)c(Cl)c4)c3c2)o1 [Lapatinib] + NC1(c2ccc(-c3nc4ccn5c(=O)[nH]nc5c4cc3-c3ccccc3)cc2)CCC1 [MK-2206] (first compound max 10 µM, 7x7, partner max 10 µM)	-0.0065		-0.0069	0.0381	0.0253		0.0089	0.0264	-0.0176	0.0213	-0.0165	0.0501	0.0123		0.0574	0.0102				0.0215
CCc1c2c(nc3ccc(O)cc13)-c1cc3c(c(=O)n1C2)COC(=O)[C@]3(O)CC [SN-38] + O=C(c1cc(Cc2n[nH]c(=O)c3ccccc23)ccc1F)N1CCN(C(=O)C2CC2)CC1 [Olaparib] (first compound max 0.3 µM, 7x7, partner max 10 µM)	0.0493	0.0923	0.0041	0.0807	0.0981	0.0883	0.0174	-0.0232	-0.0065	0.06	-0.0448	0.064	0.0909		0.0498	0.0148		0.0749	-0.0648	0.0338

— the supplement of paper PMC11061612
